Source: patent US9795646B2, “Boswellia oil, its fractions and compositions for enhancing brain function” (LAILA NUTRACEUTICALS, priority 2010, dated 2017)

Experiments:
Assay type in all cases: cell-based
[1] = target: T1, acetylcholine esterase (AChE) (Rattus norvegicus, UniProt P37136); test: Acetylcholine esterase inhibitory activity in β-amyloid peptide induced PC 12 cells; conditions: Beta Amyloid induced PC12 cells, Table 8
T1 construct: The cell extracts were used as samples for measuring the acetylcholine esterase (AChE) activity; endogenous in cells; host or cells: rat pheochromocytoma PC 12 cells, induced with β-amyloid peptide
T1 sequence (P37136 32-614): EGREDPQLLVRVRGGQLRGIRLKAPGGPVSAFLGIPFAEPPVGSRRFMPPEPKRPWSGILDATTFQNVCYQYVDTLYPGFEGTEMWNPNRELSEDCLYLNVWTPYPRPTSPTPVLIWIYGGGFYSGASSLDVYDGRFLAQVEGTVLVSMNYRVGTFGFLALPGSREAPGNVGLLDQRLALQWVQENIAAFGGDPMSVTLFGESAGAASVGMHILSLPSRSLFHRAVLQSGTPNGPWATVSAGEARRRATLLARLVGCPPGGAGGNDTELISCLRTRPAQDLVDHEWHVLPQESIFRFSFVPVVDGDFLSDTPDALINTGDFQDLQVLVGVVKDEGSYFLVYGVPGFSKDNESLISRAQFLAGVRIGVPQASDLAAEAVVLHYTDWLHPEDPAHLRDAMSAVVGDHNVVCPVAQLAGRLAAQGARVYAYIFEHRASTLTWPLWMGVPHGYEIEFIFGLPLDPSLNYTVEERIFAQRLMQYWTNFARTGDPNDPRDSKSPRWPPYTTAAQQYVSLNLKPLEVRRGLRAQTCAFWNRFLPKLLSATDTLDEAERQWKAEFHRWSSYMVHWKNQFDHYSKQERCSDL
Procedure: As a part of developing new agents for improving brain/mental function and alleviating disease conditions related to cognition and memory deficits, a large number of plant extracts have been screened for their inhibitory property on Acetylcholinesterase enzyme activity. The assay was performed in vitro by the method of Ellman et al., with minor modifications, using acetylthiocholine iodide as a substrate (Lee J. H., et. al. Arch Pharm Res 2004, 27(1): 53-56). […] Its acetylcholinesterase inhibitory activity was also evaluated by a cell based in vitro assay in Rat pheochromocytoma PC 12 cells. […] Rat pheochromocytoma PC 12 cells were equally distributed with phenol red free Dulbecco's modified Eagle's red medium (DMEM) (Sigma Life Science, USA) containing 10% fetal bovine serum (FBS) in 24-well plate. […] Thereafter, cells were induced with 1 μg/mL of β-amyloid peptide (Calbiochem, USA) for 24 h at 37° C. After 24 h, cells were collected and washed twice with 1×PBS by centrifugation at 1200 rpm for 5 min at 4° C. The cell extracts were prepared in solubilization buffer and the cell lysates were analyzed for acetylcholine esterase (AChE) activity.
The inhibitory property on the enzyme activity was assessed in β-amyloid peptide induced-rat pheochromocytoma PC 12 cells. Rat pheochromocytoma PC 12 cells were equally distributed with phenol red free Dulbecco's modified Eagle's red medium (DMEM) (Sigma Life Science, USA) containing 10% fetal bovine serum (FBS) in 24-well plate. […] Thereafter, cells were induced with 1 μg/mL of β-amyloid peptide (Calbiochem, USA) for 24 h at 37° C. After 24 h, cells were collected and washed twice with 1×PBS by centrifugation at 1200 rpm for 5 min at 4° C. Cell extracts were prepared in solubilization buffer (10 mM Tris, pH 7.2; 100 mM NaCl, 50 mM MgCl2, 1% Triton X-100). The cell extracts were used as samples for measuring the acetylcholine esterase (AChE) activity.
Cell extract samples (100 μl) were dispensed into each well of 96-well microtitre plate. Fifty micro liters of DTNB (Dithiobisnitro benzoate) solution was added to each well and incubated for 5 min at room temperature. After incubation, 50 μl of acetyl choline iodide solution was added to each well and absorbance was read immediately at 405 nm for 12 min at 2 min intervals. A standard curve was constructed by using serial concentrations of acetyl cholinesterase (0-100 mU). Total protein present in 100 μl aliquot of cell extract was calculated by Bradford method and the enzyme activity was normalized and expressed as unit activity per milligram of protein.

[2] = system: RAW 264.7 mouse macrophages; test: Assay for measuring reactive oxygen species (ROS), DCFH-DA, H2O2; conditions: H2O2 treated RAW 264.7 cells
Procedure: Formation of ROS was measured using of the fluorescent probe DCFH-DA. The method is based on the incubation of the RAW 264.7 mouse macrophages with DCFH-DA, which diffuses passively through the cellular membrane. Intracellular esterase activity results in the formation of DCFH, which emits fluorescence when oxidized to 20, 70-dichlorofluorescein (DCF). Briefly, the cells (final concentration 2×10^6/ml suspension) were incubated with DCFH-DA ([…]) in HEPES-buffered (20 mM) HBSS (CaCl2 1.26 mM, KCL 5.37 mM, KH2PO4 0.44 mM; MgCl2
0.49 mM, MgSO4 0.41 mM, NaCl 140 mM, NaHCO3 4.17 mM, Na2HPO4 0.34 mM) with glucose (5 mM) at 37° C. for 15 min. Following centrifugation, the extracellular buffer with DCFH-DA was exchanged with fresh buffer and the suspension was mixed gently. […] Fluorescence was recorded using excitation wavelength 485 nm, emission wavelength 530 nm in a Modulus luminescence spectrometer (Turner Biosystems, USA) for 120 min. Results are calculated as area under the curve (AUC) and the percentage of inhibition of intracellular ROS generation was calculated from the cultures treated with H2O2.

[3] = system: IMR32 human neuroblastoma cells; test: MTT cell proliferation assay, protection from oxidative stress induced cytotoxic damage; conditions: vehicle control 100.00, H2O2 alone 78.71
Procedure: Briefly, IMR32 human neuroblastoma cells were cultivated in Dulbecco's modified Eagle's red medium (DMEM) (Sigma Life Science, USA) containing 10% fetal bovine serum (FBS). Equal number of IMR32 cells was seeded in to each well of 96 well microplate and incubated at 37° C. with 5% CO2. […] Control wells were supplemented with 0.05% DMSO. After 72 h of treatment, equal volume of MTT reagent (R&D Systems, USA) was added to each well and incubated for 4 h. Thereafter, 50 μl of solublization buffer (R&D Systems, USA) was added to each well to solubilize the colored formazan crystals produced by the reduction of MTT. After 24 h, the optical density was measured at 550 nm using microplate reader (Bio-Rad, USA). In each assay, the vehicle control and the treatments were done in quadruplicates. The average OD obtained in the vehicle control wells is considered as the cell proliferation index of 100.

COc1c(O)cc2oc3cc(O)c(CC=C(C)C)c(O)c3c(=O)c2c1CC=C(C)C [α-mangostin]
% inhibition in Acetylcholinesterase (AChE) activity ([1]; 100 ng/ml): 26.83%
% inhibition in Acetylcholinesterase (AChE) activity ([1]; 250 ng/ml): 29.48%
Inhibition of Reactive Oxygen Species (ROS) generation (IC50) [2]: 49.817 µg/mL
Cell proliferation Index ([3]; 10 ng/ml with 250 uM H2O2, 72 h): 80.32
Cell proliferation Index ([3]; 25 ng/ml with 250 uM H2O2, 72 h): 86.78
Cell proliferation Index ([3]; 50 ng/ml with 250 uM H2O2, 72 h): 87.21
Cell proliferation Index ([3]; 100 ng/ml with 250 uM H2O2, 72 h): 91.78
